The values below come from US7923450B2, “Modulators for amyloid beta” (Hoffmann-La Roche Inc., priority 2008, dated 2011).

In the test the test system is γ-secretase. The experiment in a line: Cellular γ-secretase assay (Aβ42 secretion). It is filed as cell-based. The conditions noted are these: inhibition of Aβ42 secretion; human neuroglioma H4 cells overexpressing human APP; 22 hrs incubation; read-out: EC50 in vitro. Here is the method: Cellular γ-Secretase Assay
Human neuroglioma H4 cells overexpressing human APP were plated at 30,000 cells/well/200 μl in 96-well plates in IMDM media containing 10% FCS, 0.2 mg/l Hygromycin B and incubated for 2 h at 37° C., 5% CO2 prior to adding test compounds.
Compounds for testing were dissolved in 100% Me2SO yielding in a 10 mM stock solution. Typically 12 μl of these solutions were further diluted in 1000 μl of IMDM media (w/o FCS,). Sub sequential 1:1 dilutions gave a ten point dose response curve. 100 μl of each dilution was added to the cells in 96-well plates. Appropriate controls using vehicle only and reference compound were applied to this assay. The final concentration of Me2SO was 0.4%.
After incubation for 22 hrs at 37° C., 5% CO2, 50 μl supernatant was transferred into round-bottom 96-well polypropylene plates for detection of Aβ42. 50 μl assay buffer (50 mM Tris/Cl, pH 7.4, 60 mM NaCl, 0.5% BSA, 1% TWEEN 20) was added to the wells followed by the addition of 100 μl of detection antibody (ruthenylated Aβ42-specific antibody BAP15 0.0625 μg/mL in assay buffer). 50 μl of a premix of capture antibody (biotinylated 6E10 antibody, 1 μg/mL) and Steptavidin-coated magnetic beads (Dynal M-280, 0.125 mg/mL) were preincubated for 1 hr at room temperature before adding the assay plates. Assay plates were incubated on a shaker for 3 hrs at room temperature and finally read in the Bioveris M8 Analyser according to the manufacturer's instructions (Bioveris).
EC50 values for inhibition of Aβ42 secretion were calculated by nonlinear regression fit analysis using XLfit 4.0 software (IDBS).

Structures can show the parent of a compound that is named as a salt.

In the case of `COc1cc(Nc2nc3c(s2)CCCC3c2ccccc2)ccc1-c1cnco1` (stereo not drawn) [Example 1, (3-Methoxy-4-oxazol-5-yl-phenyl)-(4-phenyl-4,5,6,7-tetrahydro-benzothiazol-2-yl)-amine], the EC50 turned out to be 0.3 µM.
With `Cc1cn(-c2ccc(Nc3nc4c(s3)CCCC4c3ccccc3)cc2F)cn1` (stereo not drawn) [Example 5, [3-Fluoro-4-(4-methyl-imidazol-1-yl)-phenyl]-(4-phenyl-4,5,6,7-tetrahydro-benzothiazol-2-yl)-amine] the figure was 0.05 µM.
The value for `COc1cc(Nc2nc3c(s2)CCCC3c2ccccc2)ccc1-n1cnc(C)c1` (stereo not drawn) [Example 6, [3-Methoxy-4-(4-methyl-imidazol-1-yl)-phenyl]-(4-phenyl-4,5,6,7-tetrahydro-benzothiazol-2-yl)-amine] was 0.04 µM.
In the case of `COc1ccccc1C1CCCc2sc(Nc3ccc(-n4cnc(C)c4)c(OC)c3)nc21` (stereo not drawn) [Example 7, [3-Methoxy-4-(4-methyl-imidazol-1-yl)-phenyl]-[4-(2-methoxy-phenyl)-4,5,6,7-tetrahydro-benzothiazol-2-yl]-amine], the EC50 stood at 0.11 µM.
With `COc1cc(Nc2nc3c(s2)CCCC3c2ccc(C)c(C(F)(F)F)c2)ccc1-n1cnc(C)c1` (stereo not drawn) [Example 9, [3-Methoxy-4-(4-methyl-imidazol-1-yl)-phenyl]-[4-(4-methyl-3-trifluoromethyl-phenyl)-4,5,6,7-tetrahydro-benzothiazol-2-yl]-amine] the figure was 0.1 µM.
With `COc1cc(Nc2nc3c(s2)CCCC3c2ccc(OC(F)(F)F)cc2)ccc1-n1cnc(C)c1` (stereo not drawn) [Example 10, [3-Methoxy-4-(4-methyl-imidazol-1-yl)-phenyl]-[4-(4-trifluoromethoxy-phenyl)-4,5,6,7-tetrahydro-benzothiazol-2-yl]-amine] the figure was 0.1 µM.
With `COc1cc(Nc2nc3c(s2)CCCC3c2cc(F)ccc2F)ccc1-n1cnc(C)c1` (stereo not drawn) [Example 12, [4-(2,5-Difluoro-phenyl)-4,5,6,7-tetrahydro-benzothiazol-2-yl]-[3-methoxy-4-(4-methyl-imidazol-1-yl)-phenyl]-amine] the figure was 0.16 µM.
As to `COc1cc(Nc2nc3c(s2)CCCC3c2cc(C)ccc2C)ccc1-n1cnc(C)c1` (stereo not drawn) [Example 13, [4-(2,5-Dimethyl-phenyl)-4,5,6,7-tetrahydro-benzothiazol-2-yl]-[3-methoxy-4-(4-methyl-imidazol-1-yl)-phenyl]-amine], the EC50 is 0.12 µM.
In the case of `COc1cc(Nc2nc3c(s2)CCCC3c2ccccc2Cl)ccc1-n1cnc(C)c1` (stereo not drawn) [Example 14, [4-(2-Chloro-phenyl)-4,5,6,7-tetrahydro-benzothiazol-2-yl]-[3-methoxy-4-(4-methyl-imidazol-1-yl)-phenyl]-amine], the EC50 turned out to be 0.07 µM.
As to `COc1cc(Nc2nc3c(s2)CCCC3c2ccc(C)c(F)c2)ccc1-n1cnc(C)c1` (stereo not drawn) [Example 15], the EC50 was 0.09 µM.
The value for `COc1cc(Nc2nc3c(s2)CCCC3c2ccc(Cl)c(C(F)(F)F)c2)ccc1-n1cnc(C)c1` (stereo not drawn) [Example 16, [4-(4-Chloro-3-trifluoromethyl-phenyl)-4,5,6,7-tetrahydro-benzothiazol-2-yl]-[3-methoxy-4-(4-methyl-imidazol-1-yl)-phenyl]-amine] was 0.09 µM.
The value for `Cc1cn(-c2ccc(Nc3nc4c(s3)CCCC4c3ccccc3)cc2)cn1` (stereo not drawn) [Example 18, [4-(4-Methyl-imidazol-1-yl)-phenyl]-(4-phenyl-4,5,6,7-tetrahydro-benzothiazol-2-yl)-amine] was 0.13 µM; that for `COc1cc(Nc2nc3c(s2)CCCC3(CC#N)c2ccc(Cl)cc2)ccc1-n1cnc(C)c1` (stereo not drawn) [Example 19, {4-(4-Chloro-phenyl)-2-[3-methoxy-4-(4-methyl-imidazol-1-yl)-phenylamino]-4,5,6,7-tetrahydro-benzothiazol-4-yl}-acetonitrile] was 0.26 µM.
As for `Cc1cn(-c2ccc(Nc3nc4c(s3)CCCC4c3ccccc3)cc2C#N)cn1` (stereo not drawn) [Example 21, 2-(4-Methyl-imidazol-1-yl)-5-(4-phenyl-4,5,6,7-tetrahydro-benzothiazol-2-ylamino)-benzonitrile], the EC50 was found to be 0.12 µM.
With `COc1cc(Nc2nc3c(s2)CN(Cc2ccccc2)CC3c2ccccc2Cl)ccc1-n1cnc(C)c1` (stereo not drawn) [Example 23] the figure was 0.07 µM; with `COc1cc(Nc2nc3c(s2)CN(Cc2ccccc2)CC3c2ccc(Cl)c(F)c2)ccc1-n1cnc(C)c1` (stereo not drawn) [Example 24, [5-Benzyl-7-(4-chloro-3-fluorophenyl)-4,5,6,7-tetrahydro-thiazolo[5,4-c]pyridin-2-yl]-[3-methoxy-4-(4-methyl-imidazol-1-yl)-phenyl]-amine], 0.07 µM.
With `COc1cc(Nc2nc3c(s2)CCCC3c2ccc(Cl)cc2Cl)ccc1-n1cnc(C)c1` (stereo not drawn) [Example 25, [4-(2,4-Dichloro-phenyl)-4,5,6,7-tetrahydro-benzothiazol-2-yl]-[3-methoxy-4-(4-methyl-imidazol-1-yl)-phenyl]-amine], the EC50 came to 0.1 µM.
The value for `COc1cc(Nc2nc3c(s2)CCCC3c2cc(Cl)ccc2Cl)ccc1-n1cnc(C)c1` (stereo not drawn) [Example 26, [4-(2,5-Dichloro-phenyl)-4,5,6,7-tetrahydro-benzothiazol-2-yl]-[3-methoxy-4-(4-methyl-imidazol-1-yl)-phenyl]-amine] was 0.08 µM; that for `COc1cc(Nc2nc3c(s2)CCCC3c2cc(Cl)cc(Cl)c2)ccc1-n1cnc(C)c1` (stereo not drawn) [Example 27, [4-(3,5-Dichloro-phenyl)-4,5,6,7-tetrahydro-benzothiazol-2-yl]-[3-methoxy-4-(4-methyl-imidazol-1-yl)-phenyl]-amine] was 0.07 µM; that for `COc1cc(Nc2nc3c(s2)CCCC3c2cc(F)cc(F)c2)ccc1-n1cnc(C)c1` (stereo not drawn) [Example 28, [4-(3,5-Difluoro-phenyl)-4,5,6,7-tetrahydro-benzothiazol-2-yl]-[3-methoxy-4-(4-methyl-imidazol-1-yl)-phenyl]-amine] was 0.12 µM.
With `COc1cc(Nc2nc3c(s2)CCCC3c2cc(C(F)(F)F)cc(C(F)(F)F)c2)ccc1-n1cnc(C)c1` (stereo not drawn) [Example 29, [4-(3,5-Trifluoromethyl-phenyl)-4,5,6,7-tetrahydro-benzothiazol-2-yl]-[3-methoxy-4-(4-methyl-imidazol-1-yl)-phenyl]-amine] the figure was 0.1 µM.
The value for `Cc1cn(-c2ccc(Nc3ncc4c(n3)C(c3ccccc3)CCC4)cc2F)cn1` (stereo not drawn) [Example 38, [3-Fluoro-4-(4-methyl-imidazol-1-yl)-phenyl]-(8-phenyl-5,6,7,8-tetrahydro-quinazolin-2-yl)-amine] was 0.13 µM; that for `COc1cc(Nc2ncc3c(n2)C(c2ccccc2)CCC3)ccc1-n1cnc(C)c1` (stereo not drawn) [Example 39, [3-Methoxy-4-(4-methyl-imidazol-1-yl)-phenyl]-(8-phenyl-5,6,7,8-tetrahydro-quinazolin-2-yl)-amine] was 0.48 µM.
In the case of `COc1cc(Nc2ncc3c(n2)C(c2ccccc2)CN(C(=O)OC(C)(C)C)C3)ccc1-n1cnc(C)c1` (stereo not drawn) [Example 40, 2-[3-Methoxy-4-(4-methyl-imidazol-1-yl)-phenylamino]-8-phenyl-7,8-dihydro-5H-pyrido[4,3-d]pyrimidine-6-carboxylic acid tert.-butyl ester], the EC50 is 0.27 µM.
With `COc1cc(Nc2ncc3c(n2)C(c2ccccc2)CNC3)ccc1-n1cnc(C)c1` (stereo not drawn) [Example 41, [3-Methoxy-4-(4-methyl-imidazol-1-yl)-phenyl]-(8-phenyl-5,6,7,8-tetrahydro-pyrido[4,3-d]pyrimidin-2-yl)-amine hydrochloride] the figure was 0.34 µM; with `COc1cc(Nc2ncc3c(n2)C(c2ccccc2)CN(C(C)=O)C3)ccc1-n1cnc(C)c1` (stereo not drawn) [Example 42, 1-{2-[3-Methoxy-4-(4-methyl-imidazol-1-yl)-phenylamino]-8-phenyl-7,8-dihydro-5H-pyrido[4,3-d]pyrimidin-6-yl}-ethanone], 0.5 µM.
With `CCN1Cc2cnc(Nc3ccc(-n4cnc(C)c4)c(OC)c3)nc2C(c2ccccc2)C1` (stereo not drawn) [Example 44, (6-Ethyl-8-phenyl-5,6,7,8-tetrahydro-pyrido[4,3-d]pyrimidin-2-yl)-[3-methoxy-4-(4-methyl-imidazol-1-yl)-phenyl]-amine] the figure was 0.32 µM; with `Cc1cn(-c2ccc(Nc3nc4c(s3)CCCC4c3ccccc3)cc2O)cn1` (stereo not drawn) [Example 66, 2-(4-Methyl-imidazol-1-yl)-5-(4-phenyl-4,5,6,7-tetrahydro-benzothiazol-2-ylamino)-phenol], 0.21 µM.
Turning to `Cc1ncc(-c2ccc(Nc3nc4c(s3)CCCC4c3ccccc3)cc2)o1` (stereo not drawn) [Example 68, [4-(2-Methyl-oxazol-5-yl)-phenyl]-(4-phenyl-4,5,6,7-tetrahydro-benzothiazol-2-yl)-amine], the EC50 was determined as 0.13 µM.
As for `COc1cc(Nc2ncc3c(n2)C(c2cc(F)c(F)c(F)c2)CCC3)ccc1-n1cnc(C)c1` (stereo not drawn) [Example 69, [3-Methoxy-4-(4-methyl-imidazol-1-yl)-phenyl]-[8-(3,4,5-trifluoro-phenyl)-5,6,7,8-tetrahydro-quinazolin-2-yl]-amine], the EC50 came to 0.25 µM.
